Patent US20070112018A1, “Treatment of peripheral arterial occlusive disease” (priority 2005, published 2007)

Assays:
[1] = Non-clinical oral pharmacokinetics, all species evaluated; assay type: in vivo; conditions: oral administration
Protocol: Since the PK profile of rifalazil has been studied in man, only a brief summary of the non-clinical PK is provided. Overall, the absorption, distribution, metabolism, and elimination of rifalazil observed in the animals studied are similar to those observed in man.
Peak plasma concentrations were observed from 4 to 18 hours after oral administration.

[2] = tested on: C. pneumoniae; assay: Rabbit model of atherosclerosis accelerated by C. pneumoniae infection, cholesterol diet; conditions: C. pneumoniae-infected rabbits; rifalazil 5 mg/kg or azithromycin 30 mg/kg PO daily 1 week then twice weekly 6 weeks; 19 weeks after beginning treatment
Protocol: Thirty received three separate C. pneumoniae inoculations performed at 3-week intervals. Similarly, 15 control rabbits were intranasally inoculated with 1 mL of normal saline under the same conditions.
Nineteen weeks after beginning antibiotic treatment, the rabbits were euthanized. After euthanasia, hearts were examined histologically and by immunofluorescence. Animal serum samples were also examined for seropositivity to the infecting organism.

[3] = Phase 1 Study ABI-1648-006, single oral dose pharmacokinetics; conditions: for half-life / Tmax / CL/F / AUC(0-inf) / Cmax: human, plasma; for AUC0−∞/Dose Mean / Cmax/Dose Mean: normalized to mg/kg
Protocol: Study ABI-1648-006 was conducted to evaluate the PK of single and multiple oral doses of 2.5, 5, 12.5, and 25 mg administered to healthy male and female volunteers.

[4] = 25 mg cumulative doses over one week, adverse events by regimen; assay type: in vivo, human
Protocol: Different dosing regimens of rifalazil that achieve 25-mg cumulative doses in 1 week also provide relevant clinical information on the safety of 25 mg administered as a single dose once per week.
For a cumulative dose of 25 mg, the overall incidence of AEs was somewhat lower when rifalazil was administered as 5 mg QD for 5 days, compared with a single dose of 25 mg (75%). Similarly, the overall incidence of drug-related AEs was lower when 25 mg was administered as a 5 mg for 5 days (63%), vs. 12.5 mg as 2 doses (separated by 72 hours) (70%), and as a single dose of 25 mg (75%).

[5] = Tissue concentrations after multiple oral doses in the monkey; assay type: in vivo
Protocol: (§1) In rats and dogs, the Vdβ/F following oral administration was 40-80 L/kg. […] The highest mean Cmax observed was in the wall of the GI tract and occurred approximately 1 hour post-dose. […] A large tissue compartment of rifalazil is considered important for efficacy against Chlamydia given the intracellular nature of Chlamydia infection.

[6] = tested on: Chlamydia; assay: Phase 2 study in men with non-gonococcal urethritis, eradication of Chlamydia; assay type: in vivo, human
Text: The use of rifalazil in the treatment of PAOD is supported by both preclinical and clinical lines of evidence.
Due to the recalcitrant response of C. pneumoniae to antibiotic therapy, the duration of therapy is thought to be an important parameter for optimizing treatment. Previous large well-controlled randomized studies have tested long term antibiotic therapy in the CHD population. A longer term treatment schedule with rifalazil than was utilized in eradicating C. trachomatis in NGU (single dose) may represent a preferred therapeutic regimen for producing a clinically beneficial effect on C. pneumoniae in patients with PAOD. Further, dosing of PAOD patients with rifalazil for a duration of 8 weeks may further optimize therapeutic effect against C. pneumoniae in these patients. Chlamydia pneumoniae infects the vasculature, and to elicit significant antibacterial activity against this pathogen, longer courses of treatment than those directed at C. trachomatis (i.e., single dose) are preferred. Pharmacokinetic and pharmacodynamic modeling predict that this dosage will provide continuous plasma and tissue concentrations of rifalazil above the MIC90 for C. pneumoniae for over 9 weeks. A single dose of 25 mg rifalazil administered once per week for up to 4 weeks was not associated with significant adverse effects in Phase 1 studies. […]

[7] = Non-clinical oral pharmacokinetics in the beagle dog; assay type: in vivo
Protocol: as §1

[8] = females, single oral dose 2.5 mg
[9] = females, single oral dose 12.5 mg
[10] = females, single oral dose 25 mg
[11] = males, single oral dose 12.5 mg

Structure (SMILES): CO[C@H]1/C=C/O[C@@]2(C)Oc3c(C)c(O)c4c(=O)c(c5oc6cc(N7CCN(CC(C)C)CC7)cc(O)c6nc-5c4c3C2=O)NC(=O)/C(C)=C\C=C\[C@H](C)[C@H](O)[C@@H](C)[C@@H](O)[C@@H](C)[C@H](OC(C)=O)[C@@H]1C [rifalazil, 3′-hydroxy-5′-(4-isobutyl-1-piperazinyl) benzoxazinorifamycin]
- Cmax and AUC as a function of dose [1]: dose-dependent but not dose-proportional
- Plaque Area Stenosis (%) [2]: 24.2%
- Time to maximum concentration ([3]; after single dose administration (study conclusions)): 4 to 6 h
- half-life ([3]; both, oral, elimination t1/2, study conclusions): 100 to 150 h
- Tmax ([3]; both, po): 4.8 to 6.2 h
- half-life ([3]; both, po, mean distribution t1/2, range across groups, single oral doses 2.5-25 mg, males and females): 4.5 to 8.6 h
- half-life ([3]; both, po, mean elimination t1/2, range across groups, single oral doses 2.5-25 mg, males and females): 101 to 150 h
- CL/F ([3]; female, po, 2.5 mg): 4.17 mL/min/kg
- Tmax ([3]; female, po, 2.5 mg): 4.8 h
- AUC(0-inf) ([3]; female, po, 2.5 mg, AUC0−∞ GMean (geometric mean), females, single oral dose 2.5 mg): 168 ng·h/mL
- AUC(0-inf) ([3]; female, po, 2.5 mg, AUC0−∞ Mean, females, single oral dose 2.5 mg): 174 ng·h/mL
- Cmax ([3]; female, po, 2.5 mg, Cmax GMean (geometric mean), females, single oral dose 2.5 mg): 7.1 ng/mL
- Cmax ([3]; female, po, 2.5 mg, Cmax Mean, females, single oral dose 2.5 mg): 7.5 ng/mL
- half-life ([3]; female, po, 2.5 mg, Distribution t1/2 Mean, females, single oral dose 2.5 mg): 5 h
- half-life ([3]; female, po, 2.5 mg, Elimination t1/2 Mean, females, single oral dose 2.5 mg): 133 h
- CL/F ([3]; female, po, 5 mg): 3.83 mL/min/kg
- Tmax ([3]; female, po, 5 mg): 5 h
- AUC(0-inf) ([3]; female, po, 5 mg, AUC0−∞ GMean (geometric mean), females, single oral dose 5 mg): 373 ng·h/mL
- AUC(0-inf) ([3]; female, po, 5 mg, AUC0−∞ Mean, females, single oral dose 5 mg): 397 ng·h/mL
- Cmax ([3]; female, po, 5 mg, Cmax GMean (geometric mean), females, single oral dose 5 mg): 13.5 ng/mL
- Cmax ([3]; female, po, 5 mg, Cmax Mean, females, single oral dose 5 mg): 14.6 ng/mL
- half-life ([3]; female, po, 5 mg, Distribution t1/2 Mean, females, single oral dose 5 mg): 4.5 h
- half-life ([3]; female, po, 5 mg, Elimination t1/2 Mean, females, single oral dose 5 mg): 137 h
- CL/F ([3]; female, po, 12.5 mg): 6.5 mL/min/kg
- Tmax ([3]; female, po, 12.5 mg): 6.2 h
- AUC(0-inf) ([3]; female, po, 12.5 mg, AUC0−∞ GMean (geometric mean), females, single oral dose 12.5 mg): 526 ng·h/mL
- AUC(0-inf) ([3]; female, po, 12.5 mg, AUC0−∞ Mean, females, single oral dose 12.5 mg): 540 ng·h/mL
- Cmax ([3]; female, po, 12.5 mg, Cmax GMean (geometric mean), females, single oral dose 12.5 mg): 19.9 ng/mL
- Cmax ([3]; female, po, 12.5 mg, Cmax Mean, females, single oral dose 12.5 mg): 20.8 ng/mL
- half-life ([3]; female, po, 12.5 mg, Distribution t1/2 Mean, females, single oral dose 12.5 mg): 6.1 h
- half-life ([3]; female, po, 12.5 mg, Elimination t1/2 Mean, females, single oral dose 12.5 mg): 110 h
- CL/F ([3]; female, po, 25 mg): 7.17 mL/min/kg
- Tmax ([3]; female, po, 25 mg): 4.8 h
- AUC(0-inf) ([3]; female, po, 25 mg, AUC0−∞ GMean (geometric mean), females, single oral dose 25 mg): 1020 ng·h/mL
- AUC(0-inf) ([3]; female, po, 25 mg, AUC0−∞ Mean, females, single oral dose 25 mg): 1100 ng·h/mL
- Cmax ([3]; female, po, 25 mg, Cmax GMean (geometric mean), females, single oral dose 25 mg): 33.3 ng/mL
- Cmax ([3]; female, po, 25 mg, Cmax Mean, females, single oral dose 25 mg): 36.5 ng/mL
- half-life ([3]; female, po, 25 mg, Distribution t1/2 Mean, females, single oral dose 25 mg): 7.8 h
- half-life ([3]; female, po, 25 mg, Elimination t1/2 Mean, females, single oral dose 25 mg): 150 h
- Vdβ/F Mean [3, 8]: 45.0 L/kg
- AUC0−∞/Dose Mean [3, 8]: 4274.6
- Cmax/Dose Mean [3, 8]: 183.1
- Vdβ/F Mean ([3]; females, single oral dose 5 mg): 41.6 L/kg
- AUC0−∞/Dose Mean ([3]; females, single oral dose 5 mg): 5124.5
- Cmax/Dose Mean ([3]; females, single oral dose 5 mg): 185.1
- Vdβ/F Mean [3, 9]: 61.6 L/kg
- AUC0−∞/Dose Mean [3, 9]: 2759.4
- Cmax/Dose Mean [3, 9]: 106.9
- Vdβ/F Mean [3, 10]: 82.8 L/kg
- AUC0−∞/Dose Mean [3, 10]: 2796.3
- Cmax/Dose Mean [3, 10]: 91.3
- CL/F ([3]; male, po, 2.5 mg): 3.5 mL/min/kg
- Tmax ([3]; male, po, 2.5 mg): 5.3 h
- AUC(0-inf) ([3]; male, po, 2.5 mg, AUC0−∞ GMean (geometric mean), males, single oral dose 2.5 mg): 172 ng·h/mL
- AUC(0-inf) ([3]; male, po, 2.5 mg, AUC0−∞ Mean, males, single oral dose 2.5 mg): 188 ng·h/mL
- Cmax ([3]; male, po, 2.5 mg, Cmax GMean (geometric mean), males, single oral dose 2.5 mg): 7.8 ng/mL
- Cmax ([3]; male, po, 2.5 mg, Cmax Mean, males, single oral dose 2.5 mg): 8.4 ng/mL
- half-life ([3]; male, po, 2.5 mg, Distribution t1/2 Mean, males, single oral dose 2.5 mg): 5.3 h
- half-life ([3]; male, po, 2.5 mg, Elimination t1/2 Mean, males, single oral dose 2.5 mg): 101 h
- CL/F ([3]; male, po, 12.5 mg): 5.5 mL/min/kg
- Tmax ([3]; male, po, 12.5 mg): 5 h
- AUC(0-inf) ([3]; male, po, 12.5 mg, AUC0−∞ GMean (geometric mean), males, single oral dose 12.5 mg): 528 ng·h/mL
- AUC(0-inf) ([3]; male, po, 12.5 mg, AUC0−∞ Mean, males, single oral dose 12.5 mg): 552 ng·h/mL
- Cmax ([3]; male, po, 12.5 mg, Cmax GMean (geometric mean), males, single oral dose 12.5 mg): 19.2 ng/mL
- Cmax ([3]; male, po, 12.5 mg, Cmax Mean, males, single oral dose 12.5 mg): 19.7 ng/mL
- half-life ([3]; male, po, 12.5 mg, Distribution t1/2 Mean, males, single oral dose 12.5 mg): 7.7 h
- half-life ([3]; male, po, 12.5 mg, Elimination t1/2 Mean, males, single oral dose 12.5 mg): 134 h
- CL/F ([3]; male, po, 25 mg): 8 mL/min/kg
- Tmax ([3]; male, po, 25 mg): 5 h
- AUC(0-inf) ([3]; male, po, 25 mg, AUC0−∞ GMean (geometric mean), males, single oral dose 25 mg): 656 ng·h/mL
- AUC(0-inf) ([3]; male, po, 25 mg, AUC0−∞ Mean, males, single oral dose 25 mg): 683 ng·h/mL
- Cmax ([3]; male, po, 25 mg, Cmax GMean (geometric mean), males, single oral dose 25 mg): 23.9 ng/mL
- Cmax ([3]; male, po, 25 mg, Cmax Mean, males, single oral dose 25 mg): 24.7 ng/mL
- half-life ([3]; male, po, 25 mg, Distribution t1/2 Mean, males, single oral dose 25 mg): 8.7 h
- half-life ([3]; male, po, 25 mg, Elimination t1/2 Mean, males, single oral dose 25 mg): 116 h
- Vdβ/F Mean ([3]; males, single oral dose 2.5 mg): 25.4 L/kg
- AUC0−∞/Dose Mean ([3]; males, single oral dose 2.5 mg): 6084.0
- Cmax/Dose Mean ([3]; males, single oral dose 2.5 mg): 269.6
- Vdβ/F Mean [3, 11]: 62.3 L/kg
- AUC0−∞/Dose Mean [3, 11]: 3299.8
- Cmax/Dose Mean [3, 11]: 117.4
- Vdβ/F Mean ([3]; males, single oral dose 25 mg): 74.2 L/kg
- AUC0−∞/Dose Mean ([3]; males, single oral dose 25 mg): 2273.8
- Cmax/Dose Mean ([3]; males, single oral dose 25 mg): 82.0
- incidence of flu-like symptoms ([4]; 5 mg QD for 5 days (5/15 patients)): 33%
- overall incidence of drug-related AEs ([4]; 5 mg for 5 days): 63%
- overall incidence of drug-related AEs ([4]; 12.5 mg as 2 doses separated by 72 hours): 70%
- incidence of flu-like symptoms ([4]; 12.5 mg×2 dose regimen): 15%
- incidence of flu-like symptoms ([4]; 25 mg single-dose (3/16 patients)): 19%
- overall incidence of AEs ([4]; single dose of 25 mg): 75%
- overall incidence of drug-related AEs ([4]; single dose of 25 mg): 75%
- concentrations in genitourinary and GI tissues and coronary arteries versus plasma [5]: exceeded concentrations in plasma
- anti-chlamydial activity in patients with NGU ([6]; oral 25 mg): significant anti-chlamydial activity
- patients in whom Chlamydia was eradicated ([6]; single oral dose): > 86%
- Vdβ/F ([7]; dogs, oral administration): 40 to 80 L/kg
- bioavailability ([7]; plasma, po, beagle dog, 10 mg/kg): 16 to 17%
